Values after ≈ are worked out from the molar mass of the structure shown.
Key:
[1] = target: T1, PBP3 from Escherichia coli (K-12) (Escherichia coli, UniProt P0AD68); experiment: Bocillin-FL fluorescence polarization competition binding, E. coli PBP3
T1 construct: made in house
Outline: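 Purified PBP was preincubated with inhibitor (E. coli PBP3 1.5 μM, 30 min; P. aeruginosa PBP3 0.75 μM, A. baumannii PBP3 0.2 μM and PBP1a 1 μM, 15 min), then Bocillin-FL (0.1 μM; 0.05 μM for PBP1a) added and FP read up to 60 min. EC50 = 50% loss of bound probe.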

E. coli AG100 = experiment: microbe, parasite or virus in culture; type: cell-based; details: Escherichia coli, AG100, read-out: MIC E. coli AG100
E. coli D22 = experiment: microbe, parasite or virus in culture; type: cell-based; details: Escherichia coli, D22, read-out: MIC E. coli D22
E. coli AG100A = experiment: Broth microdilution MIC in CAMHB; type: cell-based; details: Escherichia coli, read-out: MIC E. coli AG100A
K. pneumoniae 848844 = experiment: microbe, parasite or virus in culture; type: cell-based; details: Klebsiella pneumoniae, 848844, read-out: MIC K. pneumoniae 848844
K. pneumoniae SI-117 = experiment: microbe, parasite or virus in culture; type: cell-based; details: Klebsiella pneumoniae, SI117, read-out: MIC K. pneumoniae SI-117
A. baumannii ATCC 19606 = experiment: microbe, parasite or virus in culture; type: cell-based; details: Acinetobacter baumannii, ATCC19606, read-out: MIC, A. baumannii ATCC 19606
P. aeruginosa ATCC 35151 = experiment: microbe, parasite or virus in culture; type: cell-based; details: Pseudomonas aeruginosa, ATCC35151, read-out: MIC P. aeruginosa ATCC 35151
[2] = system: P. aeruginosa (ΔmexAB-oprM); experiment: Broth microdilution MIC in CAMHB; type: cell-based; details: Pseudomonas aeruginosa; read-out: MIC P. aeruginosa ΔmexAB-oprM
[3] = system: N. gonorrhoeae ATCC 49226; experiment: Liquid broth MIC in Fastidious broth; details: Neisseria gonorrhoeae, ATCC49226, read-out: Minimum Inhibitory Concentration (MIC), N. gonorrhoeae ATCC 49226
N. gonorrhoeae FA1090 = experiment: Liquid broth MIC in Fastidious broth; details: Neisseria gonorrhoeae, FA1090, read-out: Minimum Inhibitory Concentration (MIC), N. gonorrhoeae FA 1090
N. gonorrhoeae WHO G = experiment: Liquid broth MIC in Fastidious broth; details: Neisseria gonorrhoeae, read-out: Minimum Inhibitory Concentration (MIC), N. gonorrhoeae WHO G
N. gonorrhoeae WHO L = experiment: Liquid broth MIC in Fastidious broth; details: Neisseria gonorrhoeae, read-out: Minimum Inhibitory Concentration (MIC), N. gonorrhoeae WHO L
N. gonorrhoeae WHO M = experiment: Liquid broth MIC in Fastidious broth; details: Neisseria gonorrhoeae, read-out: Minimum Inhibitory Concentration (MIC), N. gonorrhoeae WHO M
N. gonorrhoeae WHO X = experiment: Liquid broth MIC in Fastidious broth; details: Neisseria gonorrhoeae, read-out: Minimum Inhibitory Concentration (MIC), N. gonorrhoeae WHO X
Description: Liquid broth-based assays were used for antibacterial testing of PBP inhibitors in Neisseria gonorrhoeae. Briefly, cryo-preserved bacterial cultures of clinical strains were streaked for isolation on Chocolate Agar (72 g/L (2×) GC Agar Base (BD #228950) and 2% (2×) Hemoglobin was autoclaved at 121° C. for 20 minutes to sterilize. Once cooled to ˜50° C. the 2×GC Agar Base and 2× Hemoglobin solutions are combined and 1% IsoVitaleX Enrichment (BD #211876) was added to the solution). Strains were incubated at 36° C. and 5% CO2 to allow growth of colonies, 24 hours before inoculum preparation. 2-fold serial dilutions of test compounds were conducted in a 96 well plate with a final volume of 75 μL per well at 2-fold the final desired concentration in Fastidious broth (Remel #R07664). For preparation of assay inoculum, a direct suspension was prepared by aseptically swabbing 10-15 colonies from agar plates into culture tubes containing 2 mL of fresh sterile saline. After the dilution plates were set up, direct suspensions were then diluted in a cuvette containing sterile saline and the optical density was measured at 600 nm. Inocula were diluted such that 75 μL of this culture in Fastidious broth results in a starting bacterial concentration of 5×10^5 CFU/mL when added to the dilution plates. The plates were incubated for ˜24 hours at 36° C. and 5% CO2.

N. gonorrhoeae CDC-0197 = experiment: Liquid broth MIC in Fastidious broth; details: Neisseria gonorrhoeae, CDC0197, read-out: Minimum Inhibitory Concentration (MIC), N. gonorrhoeae CDC-0197

T1 sequence (P0AD68 1-577): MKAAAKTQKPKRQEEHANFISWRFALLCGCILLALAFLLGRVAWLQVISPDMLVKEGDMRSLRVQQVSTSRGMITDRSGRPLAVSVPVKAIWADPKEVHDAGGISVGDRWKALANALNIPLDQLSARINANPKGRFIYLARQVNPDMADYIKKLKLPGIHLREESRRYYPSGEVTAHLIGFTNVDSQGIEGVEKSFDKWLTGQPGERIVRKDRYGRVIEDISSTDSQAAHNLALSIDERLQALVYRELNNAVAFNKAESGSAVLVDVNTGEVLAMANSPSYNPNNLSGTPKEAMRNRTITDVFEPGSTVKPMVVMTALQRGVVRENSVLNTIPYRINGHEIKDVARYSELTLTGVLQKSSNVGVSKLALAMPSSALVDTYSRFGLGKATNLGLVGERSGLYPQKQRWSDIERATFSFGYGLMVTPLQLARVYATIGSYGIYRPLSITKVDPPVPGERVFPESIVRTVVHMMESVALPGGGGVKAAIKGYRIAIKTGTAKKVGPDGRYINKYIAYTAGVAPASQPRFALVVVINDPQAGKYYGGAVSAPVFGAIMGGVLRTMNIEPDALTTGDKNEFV

For `CS(=O)(=O)N1CCN(C(=O)NC(C(=O)N[C@H]2Cc3cccc(C(=O)O)c3OB2O)c2ccc(P(=O)(O)O)c(F)c2O)C1=O` (stereo partly drawn) [Example 48, (3R)-3-(2-(3-fluoro-2-hydroxy-4-phosphonophenyl)-2-(3-(methylsulfonyl)-2-oxoimidazolidine-1-carboxamido)acetamido)-2-hydroxy-3,4-dihydro-2H-benzo[e][1,2]oxaborinine-8-carboxylic acid], the EC50 [1] was 10 to 50 µM, the MIC (E. coli AG100) was > 128 µg/mL and the MIC (E. coli D22) was 8 to 16 µg/mL (≈ 12.4 to 24.8 µM). For the same molecule, the MIC (E. coli AG100A) was > 128 µg/mL, the MIC (K. pneumoniae 848844) was > 128 µg/mL and the MIC (K. pneumoniae SI-117) was > 128 µg/mL. For the same molecule, the MIC (A. baumannii ATCC 19606) was > 128 µg/mL, the MIC (P. aeruginosa ATCC 35151) was 8 to 16 µg/mL (≈ 12.4 to 24.8 µM) and the MIC [2] was > 128 µg/mL. The MIC [3] was < 1 µg/mL, the MIC (N. gonorrhoeae FA1090) was < 1 µg/mL and the MIC (N. gonorrhoeae WHO G) was < 1 µg/mL. The MIC (N. gonorrhoeae WHO L) was 4 to 8 µg/mL (≈ 6.21 to 12.4 µM), the MIC (N. gonorrhoeae WHO M) was < 1 µg/mL and the MIC (N. gonorrhoeae WHO X) was 16 to 32 µg/mL (≈ 24.8 to 49.7 µM). The MIC (N. gonorrhoeae CDC-0197) was 1 to 2 µg/mL (≈ 1.55 to 3.1 µM).
`O=C(O)c1cccc2c1OB(O)[C@@H](NC(=O)C(NC(=O)[C@H]1CCCN1)c1ccc(P(=O)(O)O)cc1)C2` (stereo partly drawn) [Example 52, (3R)-2-hydroxy-3-(2-(4-phosphonophenyl)-2-((R)-pyrrolidine-2-carboxamido)acetamido)-3,4-dihydro-2H-benzo[e][1,2]oxaborinine-8-carboxylic acid] was tested, and the EC50 [1] was > 250 µM, the MIC (E. coli AG100) was > 128 µg/mL and the MIC (E. coli D22) was 32 to 64 µg/mL (≈ 61.9 to 124 µM). The MIC (E. coli AG100A) was 32 to 64 µg/mL (≈ 61.9 to 124 µM), the MIC (K. pneumoniae 848844) was > 128 µg/mL and the MIC (K. pneumoniae SI-117) was 32 to 64 µg/mL (≈ 61.9 to 124 µM). For the same molecule, the MIC (A. baumannii ATCC 19606) was > 128 µg/mL, the MIC (P. aeruginosa ATCC 35151) was 8 to 16 µg/mL (≈ 15.5 to 30.9 µM) and the MIC [2] was > 128 µg/mL. It also gave an MIC [3] of 16 to 32 µg/mL (≈ 30.9 to 61.9 µM), an MIC (N. gonorrhoeae FA1090) of 16 to 32 µg/mL (≈ 30.9 to 61.9 µM) and an MIC (N. gonorrhoeae WHO G) of 16 to 32 µg/mL (≈ 30.9 to 61.9 µM). The MIC (N. gonorrhoeae WHO L) was 4 to 8 µg/mL (≈ 7.73 to 15.5 µM), the MIC (N. gonorrhoeae WHO M) was 16 to 32 µg/mL (≈ 30.9 to 61.9 µM) and the MIC (N. gonorrhoeae WHO X) was 16 to 32 µg/mL (≈ 30.9 to 61.9 µM). The MIC (N. gonorrhoeae CDC-0197) was 16 to 32 µg/mL (≈ 30.9 to 61.9 µM).
`O=C1CC[C@H](C(=O)NC(C(=O)N[C@H]2Cc3cccc(C(=O)O)c3OB2O)c2ccc(P(=O)(O)O)cc2)N1` (stereo partly drawn) [Example 53, (3R)-2-hydroxy-3-(2-((R)-5-oxopyrrolidine-2-carboxamido)-2-(4-phosphonophenyl)acetamido)-3,4-dihydro-2H-benzo[e][1,2]oxaborinine-8-carboxylic acid] was tested, and the EC50 [1] was 50 to 250 µM, the MIC (E. coli AG100) was > 128 µg/mL and the MIC (E. coli D22) was 32 to 64 µg/mL (≈ 60.2 to 120 µM). For the same molecule, the MIC (E. coli AG100A) was > 128 µg/mL, the MIC (K. pneumoniae 848844) was > 128 µg/mL and the MIC (K. pneumoniae SI-117) was > 128 µg/mL. The MIC (A. baumannii ATCC 19606) was > 128 µg/mL, the MIC (P. aeruginosa ATCC 35151) was 8 to 16 µg/mL (≈ 15.1 to 30.1 µM) and the MIC [2] was > 128 µg/mL. It also gave an MIC [3] of 1 to 2 µg/mL (≈ 1.88 to 3.76 µM), an MIC (N. gonorrhoeae FA1090) of 1 to 2 µg/mL (≈ 1.88 to 3.76 µM) and an MIC (N. gonorrhoeae WHO G) of 1 to 2 µg/mL (≈ 1.88 to 3.76 µM). For the same molecule, the MIC (N. gonorrhoeae WHO L) was 16 to 32 µg/mL (≈ 30.1 to 60.2 µM), the MIC (N. gonorrhoeae WHO M) was 1 to 2 µg/mL (≈ 1.88 to 3.76 µM) and the MIC (N. gonorrhoeae WHO X) was 16 to 32 µg/mL (≈ 30.1 to 60.2 µM). It also gave an MIC (N. gonorrhoeae CDC-0197) of 4 to 8 µg/mL (≈ 7.53 to 15.1 µM).
`O=C(O)c1cccc2c1OB(O)[C@@H](NC(=O)C(NC(=O)N1CCCNC1=O)c1ccc(P(=O)(O)O)cc1)C2` (stereo partly drawn) [Example 56, (3R)-2-hydroxy-3-(2-(2-oxohexahydropyrimidine-1-carboxamido)-2-(4-phosphonophenyl)acetamido)-3,4-dihydro-2H-benzo[e][1,2]oxaborinine-8-carboxylic acid] was tested, and the EC50 [1] was 10 to 50 µM, the MIC (E. coli AG100) was > 128 µg/mL and the MIC (E. coli D22) was 8 to 16 µg/mL (≈ 14.6 to 29.3 µM). The MIC (E. coli AG100A) was 32 to 64 µg/mL (≈ 58.6 to 117 µM), the MIC (K. pneumoniae 848844) was > 128 µg/mL and the MIC (K. pneumoniae SI-117) was > 128 µg/mL. For the same molecule, the MIC (A. baumannii ATCC 19606) was > 128 µg/mL, the MIC (P. aeruginosa ATCC 35151) was < 1 µg/mL and the MIC [2] was > 128 µg/mL. For the same molecule, the MIC [3] was 1 to 2 µg/mL (≈ 1.83 to 3.66 µM), the MIC (N. gonorrhoeae FA1090) was < 1 µg/mL and the MIC (N. gonorrhoeae WHO G) was 1 to 2 µg/mL (≈ 1.83 to 3.66 µM). For the same molecule, the MIC (N. gonorrhoeae WHO L) was 16 to 32 µg/mL (≈ 29.3 to 58.6 µM), the MIC (N. gonorrhoeae WHO M) was < 1 µg/mL and the MIC (N. gonorrhoeae WHO X) was 16 to 32 µg/mL (≈ 29.3 to 58.6 µM). For the same molecule, the MIC (N. gonorrhoeae CDC-0197) was 4 to 8 µg/mL (≈ 7.32 to 14.6 µM).
For `O=C(O)c1cccc2c1OB(O)[C@@H](NC(=O)C(NC(=O)N1CCCC1=O)c1ccc(P(=O)(O)O)cc1)C2` (stereo partly drawn) [Example 57, (3R)-2-hydroxy-3-(2-(2-oxopyrrolidine-1-carboxamido)-2-(4-phosphonophenyl)acetamido)-3,4-dihydro-2H-benzo[e][1,2]oxaborinine-8-carboxylic acid], the EC50 [1] was 10 to 50 µM, the MIC (E. coli AG100) was > 128 µg/mL and the MIC (E. coli D22) was 8 to 16 µg/mL (≈ 15.1 to 30.1 µM). The MIC (E. coli AG100A) was 32 to 64 µg/mL (≈ 60.2 to 120 µM), the MIC (K. pneumoniae 848844) was > 128 µg/mL and the MIC (K. pneumoniae SI-117) was > 128 µg/mL. For the same molecule, the MIC (A. baumannii ATCC 19606) was > 128 µg/mL, the MIC (P. aeruginosa ATCC 35151) was 2 to 4 µg/mL (≈ 3.76 to 7.53 µM) and the MIC [2] was > 128 µg/mL. For the same molecule, the MIC [3] was < 1 µg/mL, the MIC (N. gonorrhoeae FA1090) was < 1 µg/mL and the MIC (N. gonorrhoeae WHO G) was < 1 µg/mL. The MIC (N. gonorrhoeae WHO L) was 16 to 32 µg/mL (≈ 30.1 to 60.2 µM), the MIC (N. gonorrhoeae WHO M) was < 1 µg/mL and the MIC (N. gonorrhoeae WHO X) was 4 to 8 µg/mL (≈ 7.53 to 15.1 µM). The MIC (N. gonorrhoeae CDC-0197) was < 1 µg/mL.

Source: patent publication US20240270762A1, “PENICILLIN-BINDING PROTEIN INHIBITORS” (priority 2021, published 2024)
